Experimental data reported in US20130209551A1, “PENTAPEPTIDE DERIVATIVES FOR PROMOTING HAIR GROWTH” (priority 2010, published 2013).
*: point of attachment. Biotin = O=C1N[C@H]2[C@H](CS[C@H]2CCCCC(=O)*)N1

Test system: hair bulb keratinocytes
Assay: Detection of the hair bulb keratinocyte proliferation (test of Biol. Pharm. Bull., 28(3), 485-489, (2005))
Assay type: cell-based
Conditions: relative to unsubstituted pentapeptide Gly-Pro-Ile-Gly-Ser
Excerpt: In the test as described in Biol. Pharm.

5-[(3aS,4S,6aR)-2-oxo-hexahydro-1H-thieno[3,4-d]imidazol-4-yl]pentanoyl-Gly-Pro-Ile-Gly-Ser-OH (Biotin-GPIGS-OH; SMILES CC[C@H](C)[C@H](NC(=O)[C@@H]1CCCN1C(=O)CNC(=O)CCCC[C@@H]1SC[C@@H]2NC(=O)N[C@@H]21)C(=O)NCC(=O)N[C@@H](CO)C(=O)O) [No. 9]
keratinocyte growth test result, value superior in comparison with the corresponding value for Gly-Pro-Ile-Gly-Ser: 53%
